Key:
[1] = major metabolite of ticagrelor; cited from earlier work
[2] = system: AVP gene; assay: mRNA expression of AVP in primary cultures of rat hypothalamic cells; assay type: cell-based
From the text: Alternatively, the observed in vivo effect of ticagrelor in mice can be the due to a ticagrelor metabolite such as AR-C124910XX or AR-C133913XX, which may bind to hypothalamic cells at a site other than P2Y12 receptor and exert inhibitory effect on the production of AVP. […] Based on this observation on cultured hypothalamic cells and the unequivocal data obtained from the primary cultures of rat inner medullary collecting duct cells, the observed in vivo effect of ticagrelor on decreased AVP production is mediated by the action of one or both metabolites of ticagrelor (AR-C124910XX or AR-C133913XX).

[3] = target: vasopressin V2 receptor (Homo sapiens, UniProt P30518); settings: chronic blockade of vasopressin V2 receptor; cited from earlier work
[4] = target: CYP3A4 (Homo sapiens, UniProt P08684); settings: cited from earlier work
[5] = system: patients; settings: in a vast majority of patients; cited from earlier work
[6] = system: rodent models of ADPKD; settings: by reducing cAMP production in the kidney; cited from earlier work
[7] = system: mice; assay: urinary concentrating ability and AVP production in mice; assay type: in vivo; settings: for urinary excretion of AVP: ticagrelor effect dose-dependent
Procedure: The effect of prasugrel on urinary concentration ability in mice was also tested and the same findings as clopidogrel were observed.
Both clopidogrel bisulfate and prasugrel belong to thienopyridine group of drugs, and thus both are prodrugs that need to be metabolized in the liver releasing their active metabolites that block the platelet P2Y12 receptor.

[8] = system: rat inner medullary collecting duct cells; assay: dDAVP-induced AQP2/AQP3 mRNA expression and cAMP production in primary cultures of rat inner medullary collecting duct cells; assay type: cell-based
From the text: In sum, ticagrelor binds to P2Y12 receptor in medullary collecting duct cells and enhances the effect on dDAVP on the mRNA expression of AQP2 and AQP3 water channels and cAMP production. Thus, the observed decreased urinary concentration in ticagrelor-treated mice was not because of the effect of ticagrelor on renal medullary collecting duct.

[9] = system: rats; settings: administration to rats
From the text: The blockade of P2Y12 receptor by PSB-0739 on AVP gene expression in cultured rat hypothalamic cells was studied.

Chain of vasopressin V2 receptor (P30518 whole entry, species assumed): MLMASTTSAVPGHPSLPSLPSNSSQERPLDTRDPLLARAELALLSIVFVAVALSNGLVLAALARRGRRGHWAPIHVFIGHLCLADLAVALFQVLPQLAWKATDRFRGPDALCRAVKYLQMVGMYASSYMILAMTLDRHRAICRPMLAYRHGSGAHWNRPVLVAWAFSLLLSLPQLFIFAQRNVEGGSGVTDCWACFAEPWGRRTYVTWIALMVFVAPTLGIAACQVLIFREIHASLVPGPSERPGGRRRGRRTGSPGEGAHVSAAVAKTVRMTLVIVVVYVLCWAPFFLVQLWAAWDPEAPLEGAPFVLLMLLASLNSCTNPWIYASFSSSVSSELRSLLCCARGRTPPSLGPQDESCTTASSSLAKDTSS
Chain of CYP3A4 (P08684 whole entry): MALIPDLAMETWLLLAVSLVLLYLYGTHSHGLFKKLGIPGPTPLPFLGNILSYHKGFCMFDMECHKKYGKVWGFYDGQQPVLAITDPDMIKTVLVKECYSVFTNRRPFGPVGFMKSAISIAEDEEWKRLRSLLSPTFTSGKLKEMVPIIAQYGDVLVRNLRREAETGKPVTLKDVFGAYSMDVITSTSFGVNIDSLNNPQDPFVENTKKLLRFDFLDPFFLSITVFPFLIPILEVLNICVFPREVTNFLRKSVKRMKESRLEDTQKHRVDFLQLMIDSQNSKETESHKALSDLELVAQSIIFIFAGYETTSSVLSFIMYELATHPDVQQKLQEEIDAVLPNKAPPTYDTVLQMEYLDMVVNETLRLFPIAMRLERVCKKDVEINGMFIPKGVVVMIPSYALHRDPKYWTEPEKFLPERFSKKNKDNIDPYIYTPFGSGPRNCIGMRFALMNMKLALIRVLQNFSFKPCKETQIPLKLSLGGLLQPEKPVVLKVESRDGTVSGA

Question: With CCCSc1nc(N)c2nnn([C@@H]3C[C@H](OCCO)[C@@H](O)[C@H]3O)c2n1 [AR-C133913XX] as the compound, how does the “where the metabolite is found” value [1] read?
Answer: The value was “urine and feces”.

Question: Which “mRNA expression of the AVP gene” value ([2]; cultured rat hypothalamic cells, exposed for 24 hours, blockade of P2Y12 receptor) does the source give for Nc1c(S(=O)(=O)O)cc(Nc2ccc(Nc3ccccc3)c(S(=O)(=O)O)c2)c2c1C(=O)c1ccccc1C2=O [PSB-0739] here?
Answer: The value was “significantly increased”.

Question: Which “effect of PSB-0739 on AVP gene expression” value ([2]; cultured rat hypothalamic cells, combination with PSB-0739, 24 hours) does the source give for Nc1ncnc2c1ncn2[C@@H]1O[C@H](COP(=O)(O)OP(=O)(O)O)[C@@H](O)[C@H]1O [ADP] here?
Answer: The value was “blocked”.

Question: With Cc1ccccc1C(=O)Nc1ccc(C(=O)N2CCCC(O)c3cc(Cl)ccc32)c(C)c1 (centres unmarked) [tolvaptan] as the compound, how does the “endogenous production of AVP” value [3] read?
Answer: Its value is “increased”.

Question: What about the metabolizing enzyme system [4] of the same compound?
Answer: The metabolizing enzyme system was “metabolized by the CYP3A4 system”.

Question: And the adverse effects [5]?
Answer: Its adverse effects is “severe polyuria (loss of water in the urine), nocturia (frequent urination in the night), thirst and dry mouth”.

Question: What about the cystogenesis [6] of the same compound?
Answer: The cystogenesis was “consistently inhibited”.

Question: With Cc1ccccc1C(=O)Nc1ccc(C(=O)N2CCCC(N(C)C)c3ccccc32)cc1 (centres unmarked) [OPC-31260] as the compound, how does the cystogenesis [6] read?
Answer: The cystogenesis was “consistently inhibited”.

Question: What does the source list for CCCSc1nc(N[C@@H]2C[C@H]2c2ccc(F)c(F)c2)c2nnn([C@@H]3C[C@H](OCCO)[C@@H](O)[C@H]3O)c2n1 [ticagrelor]?
Answer: urine concentrating ability ([7]; administered to mice): dilution of urine; urinary excretion of AVP ([7]; administered to mice): decreased; urine flow ([7]; mice, dose-dependent): increased; baseline mRNA expression of AVP ([2]; cultured hypothalamic cells): ~1.8 fold; dDAVP-induced increase in cAMP production [8]: did not interfere; mRNA expression of dDAVP-induced AQP2 water channel protein [8]: concentration-dependent increases; mRNA expression of dDAVP-induced AQP3 water channel protein [8]: concentration-dependent increases

Question: With CCCSc1nc(N[C@@H]2C[C@H]2c2ccc(F)c(F)c2)c2nnn([C@@H]3C[C@H](O)[C@@H](O)[C@H]3O)c2n1 [AR-C124910XX] as the compound, how does the “where the metabolite is found” value [1] read?
Answer: Its value is “mostly in plasma and feces”.

Question: With COC(=O)[C@H](c1ccccc1Cl)N1CCc2sccc2C1 [clopidogrel] as the compound, how does the AVP production [9] read?
Answer: Its AVP production is “increase”.

Question: For CC(=O)Oc1cc2c(s1)CCN(C(C(=O)C1CC1)c1ccccc1F)C2 (centres unmarked) [prasugrel], which “protein abundance of AQP2 in the kidney medulla” value ([7]; administered to mice) is on record?
Answer: The value was “significantly increased”.

Question: And the urine concentrating ability ([7]; administered to mice)?
Answer: The urine concentrating ability was “significantly increased”.

Question: And the “urinary excretion of AVP” value ([7]; administered to mice)?
Answer: Its value is “significantly increased”.
